Test results published in patent publication US10214519B2, “Phosphatidylinositol 3-kinase inhibitors” (Gilead Sciences, Inc., priority 2016, dated 2019).

Molecular target: PI3Kβ (Homo sapiens (Human), UniProt P42338)
Experiment: PI3K isoform TR-FRET enzymatic assay (PI3Kβ)
Type: biochemical
Conditions: 2× Km ATP, 30 minutes at 25° C.
Outline: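 Heterodimeric recombinant PI3Kβ was incubated with compound 30 minutes at 25° C. Product was detected by TR-FRET competition with 10 nM labeled PIP3 for 35 nM Eu-GRP-1 PH domain after EDTA stop. Data were normalized to 1 μM wortmannin and DMSO, and IC50 was taken from a four-parameter fit.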

PI3Kβ, sequence (P42338 whole entry, canonical isoform): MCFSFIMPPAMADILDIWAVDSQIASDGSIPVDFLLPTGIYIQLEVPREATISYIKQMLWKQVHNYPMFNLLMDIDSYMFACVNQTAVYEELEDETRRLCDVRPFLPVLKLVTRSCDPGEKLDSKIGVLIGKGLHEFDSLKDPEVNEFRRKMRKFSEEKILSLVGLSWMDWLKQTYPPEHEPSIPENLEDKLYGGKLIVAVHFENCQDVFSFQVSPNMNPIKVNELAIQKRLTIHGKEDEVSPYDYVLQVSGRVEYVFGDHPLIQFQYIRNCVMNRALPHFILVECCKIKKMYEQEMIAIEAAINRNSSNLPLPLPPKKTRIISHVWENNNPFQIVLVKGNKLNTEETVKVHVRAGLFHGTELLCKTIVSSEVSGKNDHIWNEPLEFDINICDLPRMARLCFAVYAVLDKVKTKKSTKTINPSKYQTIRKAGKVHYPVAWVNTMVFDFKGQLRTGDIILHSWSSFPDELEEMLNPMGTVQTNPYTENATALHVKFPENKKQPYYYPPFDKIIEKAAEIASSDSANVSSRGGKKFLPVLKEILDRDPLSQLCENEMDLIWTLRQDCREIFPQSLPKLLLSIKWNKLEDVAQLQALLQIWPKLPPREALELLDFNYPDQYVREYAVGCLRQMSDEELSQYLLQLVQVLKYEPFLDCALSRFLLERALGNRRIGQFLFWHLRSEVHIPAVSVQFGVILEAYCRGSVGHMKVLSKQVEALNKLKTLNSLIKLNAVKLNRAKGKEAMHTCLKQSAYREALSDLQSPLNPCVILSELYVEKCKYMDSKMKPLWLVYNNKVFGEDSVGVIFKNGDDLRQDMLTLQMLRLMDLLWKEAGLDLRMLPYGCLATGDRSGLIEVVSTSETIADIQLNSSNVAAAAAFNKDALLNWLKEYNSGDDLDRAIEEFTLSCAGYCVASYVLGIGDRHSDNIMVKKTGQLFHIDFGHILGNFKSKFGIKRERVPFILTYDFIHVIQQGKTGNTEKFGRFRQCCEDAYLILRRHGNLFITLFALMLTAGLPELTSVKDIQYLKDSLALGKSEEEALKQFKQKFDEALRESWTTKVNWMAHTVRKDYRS
PI3Kβ, sequence (P27986 whole entry partner, canonical isoform): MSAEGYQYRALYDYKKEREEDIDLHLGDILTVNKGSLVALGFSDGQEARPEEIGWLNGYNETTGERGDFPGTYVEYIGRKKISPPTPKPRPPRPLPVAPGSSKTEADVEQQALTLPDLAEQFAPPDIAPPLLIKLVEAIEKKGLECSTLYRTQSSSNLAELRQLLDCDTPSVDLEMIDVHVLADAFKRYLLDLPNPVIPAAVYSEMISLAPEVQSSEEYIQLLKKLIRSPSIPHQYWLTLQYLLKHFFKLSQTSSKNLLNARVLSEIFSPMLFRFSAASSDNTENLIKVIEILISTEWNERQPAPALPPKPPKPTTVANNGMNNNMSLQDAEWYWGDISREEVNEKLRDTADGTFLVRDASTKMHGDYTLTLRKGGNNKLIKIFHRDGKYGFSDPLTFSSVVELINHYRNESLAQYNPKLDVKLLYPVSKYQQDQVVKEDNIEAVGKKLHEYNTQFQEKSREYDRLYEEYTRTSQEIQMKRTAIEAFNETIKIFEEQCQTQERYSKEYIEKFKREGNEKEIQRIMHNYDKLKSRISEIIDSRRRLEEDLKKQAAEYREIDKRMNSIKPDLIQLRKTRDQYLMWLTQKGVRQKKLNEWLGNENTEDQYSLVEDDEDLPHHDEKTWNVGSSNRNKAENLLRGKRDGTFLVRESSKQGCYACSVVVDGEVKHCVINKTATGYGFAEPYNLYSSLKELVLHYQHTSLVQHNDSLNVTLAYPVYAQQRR

IC50 [nM]	SMILES
620	Cc1nc2c(-c3cnco3)cc(N3CCOCC3)cc2n1-c1ccnc2c(Cl)cccc12 [Example 277, 4-[3-(8-chloroquinolin-4-yl)-2-methyl-7-(1,3-oxazol-5-yl)benzimidazol-5-yl]morpholine]
4	Cc1nc2c(-c3cnc(Cl)[nH]3)cc(N3CCOCC3)cc2n1-c1ccnc2c(Cl)cccc12 [Example 278, 4-[7-(2-chloro-1H-imidazol-5-yl)-3-(8-chloroquinolin-4-yl)-2-methylbenzimidazol-5-yl]morpholine]
10	CCc1nc2c(-c3cnc(Cl)[nH]3)cc(N3CCOCC3)cc2n1-c1ccnc2c(Cl)cccc12 [Example 279, 4-[7-(2-chloro-1H-imidazol-5-yl)-3-(8-chloroquinolin-4-yl)-2-ethylbenzimidazol-5-yl]morpholine]
13	CCc1nc2c(-c3cnc(Cl)[nH]3)cc(N3CCOCC3)cc2n1-c1ccnc2c(F)ccc(F)c12 [Example 280, 4-[7-(2-chloro-1H-imidazol-5-yl)-3-(5,8-difluoroquinolin-4-yl)-2-ethylbenzimidazol-5-yl]morpholine]
15	CCCc1nc2c(-c3cnc(Cl)[nH]3)cc(N3CCOCC3)cc2n1-c1ccnc2c(Cl)cccc12 [Example 281, 4-[7-(2-chloro-1H-imidazol-5-yl)-3-(8-chloroquinolin-4-yl)-2-propylbenzimidazol-5-yl]morpholine]
25	Cc1cc(-n2c(C)nc3c(-c4cnc(Cl)[nH]4)cc(N4CCOCC4)cc32)c2cccc(F)c2n1 [Example 282, 4-[7-(2-chloro-1H-imidazol-5-yl)-3-(8-fluoro-2-methylquinolin-4-yl)-2-methylbenzimidazol-5-yl]morpholine]
71	CCc1nc2c(-c3cnc(Cl)[nH]3)cc(N3CCOCC3)cc2n1-c1cc(C)nc2c(F)cccc12 [Example 283, 4-[7-(2-chloro-1H-imidazol-5-yl)-2-ethyl-3-(8-fluoro-2-methylquinolin-4-yl)benzimidazol-5-yl]morpholine]
13	CCc1nc2c(-c3cnc(Cl)[nH]3)cc(N3CCOCC3)cc2n1-c1ccnc2c(F)cccc12 [Example 284, 4-[7-(2-chloro-1H-imidazol-5-yl)-2-ethyl-3-(8-fluoroquinolin-4-yl)benzimidazol-5-yl]morpholine]
4	Clc1ncc(-c2cc(N3CCOCC3)cc3c2ncn3-c2ccnc3c(Cl)cccc23)[nH]1 [Example 285, 4-[7-(2-chloro-1H-imidazol-5-yl)-3-(8-chloroquinolin-4-yl)benzimidazol-5-yl]morpholine]
14	Fc1ccc(F)c2c(-n3c(C4CC4)nc4c(-c5cnc(Cl)[nH]5)cc(N5CCOCC5)cc43)ccnc12 [Example 286, 4-[7-(2-chloro-1H-imidazol-5-yl)-2-cyclopropyl-3-(5,8-difluoroquinolin-4-yl)benzimidazol-5-yl]morpholine]
56	Fc1cccc2c(-n3c(C4CC4)nc4c(-c5cnc(Cl)[nH]5)cc(N5CCOCC5)cc43)ccnc12 [Example 287, 4-[7-(2-chloro-1H-imidazol-5-yl)-2-cyclopropyl-3-(8-fluoroquinolin-4-yl)benzimidazol-5-yl]morpholine]
5	Cc1nc2c(-c3cnc(Cl)[nH]3)cc(N3CCOCC3)cc2n1-c1ccnc2c(Cl)ccc(F)c12 [Example 288, 4-[3-(8-chloro-5-fluoroquinolin-4-yl)-7-(2-chloro-1H-imidazol-5-yl)-2-methylbenzimidazol-5-yl]morpholine]
24	Cc1nc2c(-c3cnc(Cl)[nH]3)cc(N3CCOCC3)cc2n1-c1ccnc2c(Cl)cc(F)cc12 [Example 289, 4-[3-(8-chloro-6-fluoroquinolin-4-yl)-7-(2-chloro-1H-imidazol-5-yl)-2-methylbenzimidazol-5-yl]morpholine]
68	Clc1ncc(-c2cc(N3CCOCC3)cc3c2nc(C2CC2)n3-c2ccnc3c(Cl)cccc23)[nH]1 [Example 290, 4-[7-(2-chloro-1H-imidazol-5-yl)-3-(8-chloroquinolin-4-yl)-2-cyclopropylbenzimidazol-5-yl]morpholine]
27	Clc1ncc(-c2cc(N3CCOCC3)cc3c2nc(C2COC2)n3-c2ccnc3c(Cl)cccc23)[nH]1 [Example 291, 4-[7-(2-chloro-1H-imidazol-5-yl)-3-(8-chloroquinolin-4-yl)-2-(oxetan-3-yl)benzimidazol-5-yl]morpholine]
42	Fc1cccc2c(-n3cnc4c(-c5cnc(Cl)[nH]5)cc(N5CCOCC5)cc43)ccnc12 [Example 292, 4-[7-(2-chloro-1H-imidazol-5-yl)-3-(8-fluoroquinolin-4-yl)benzimidazol-5-yl]morpholine]
38	Cc1nc2c(-c3cnc(Cl)[nH]3)cc(N3CCOCC3)cc2n1-c1ccnc2cc(F)ccc12 [Example 293, 4-[7-(2-chloro-1H-imidazol-5-yl)-3-(7-fluoroquinolin-4-yl)-2-methylbenzimidazol-5-yl]morpholine]

IC50 [nM]	SMILES
6	Cc1nc2c(-c3cnc(Cl)[nH]3)cc(N3CCOCC3)cc2n1-c1ccnc2c(Cl)c(F)ccc12 [Example 294, 4-[3-(8-chloro-7-fluoroquinolin-4-yl)-7-(2-chloro-1H-imidazol-5-yl)-2-methylbenzimidazol-5-yl]morpholine]
12	CCc1nc2c(-c3cnc(Cl)[nH]3)cc(N3CCOCC3)cc2n1-c1ccnc2c(Cl)c(F)ccc12 [Example 295, 4-[3-(8-chloro-7-fluoroquinolin-4-yl)-7-(2-chloro-1H-imidazol-5-yl)-2-ethylbenzimidazol-5-yl]morpholine]
17	Fc1ccc2c(-n3c(C4CC4)nc4c(-c5cnc(Cl)[nH]5)cc(N5CCOCC5)cc43)ccnc2c1Cl [Example 296, 4-[3-(8-chloro-7-fluoroquinolin-4-yl)-7-(2-chloro-1H-imidazol-5-yl)-2-cyclopropylbenzimidazol-5-yl]morpholine]
3800	Cc1ncc(-c2cc(N3CCOCC3)cc3c2nc(C)n3-c2ccnc3c(Cl)cccc23)s1 [Example 297, 4-[3-(8-chloroquinolin-4-yl)-2-methyl-7-(2-methyl-1,3-thiazol-5-yl)benzimidazol-5-yl]morpholine]
10	Cc1nc2c(-c3cnc(Cl)[nH]3)cc(N3CCOCC3)cc2n1-c1ccnc2c(F)ccc(F)c12 [Example 298, 4-[7-(2-chloro-1H-imidazol-5-yl)-3-(5,8-difluoroquinolin-4-yl)-2-methylbenzimidazol-5-yl]morpholin]
17	CCCc1nc2c(-c3cnc(Cl)[nH]3)cc(N3CCOCC3)cc2n1-c1ccnc2c(F)ccc(F)c12 [Example 299, 4-[7-(2-chloro-1H-imidazol-5-yl)-3-(5,8-difluoroquinolin-4-yl)-2-propylbenzimidazol-5-yl]morpholine]
14	CC(C)Cc1nc2c(-c3cnc(Cl)[nH]3)cc(N3CCOCC3)cc2n1-c1ccnc2c(F)ccc(F)c12 [Example 300, 4-[7-(2-chloro-1H-imidazol-5-yl)-3-(5,8-difluoroquinolin-4-yl)-2-(2-methylpropyl)benzimidazol-5-yl]morpholine]
20	Clc1ncc(-c2cc(N3CCOCC3)cc3c2nc(CC2CC2)n3-c2ccnc3c(Cl)cccc23)[nH]1 [Example 301, 4-[7-(2-chloro-1H-imidazol-5-yl)-3-(8-chloroquinolin-4-yl)-2-(cyclopropylmethyl)benzimidazol-5-yl]morpholine]
24	Fc1ccc(F)c2c(-n3c(CC4CC4)nc4c(-c5cnc(Cl)[nH]5)cc(N5CCOCC5)cc43)ccnc12 [Example 302, 4-[7-(2-chloro-1H-imidazol-5-yl)-2-(cyclopropylmethyl)-3-(5,8-difluoroquinolin-4-yl)benzimidazol-5-yl]morpholine]
21	CCCc1nc2c(-c3cnc(Cl)[nH]3)cc(N3CCOCC3)cc2n1-c1ccnc2c(Cl)cc(F)cc12 [Example 303, 4-[3-(8-chloro-6-fluoroquinolin-4-yl)-7-(2-chloro-1H-imidazol-5-yl)-2-propylbenzimidazol-5-yl]morpholine]
81	Fc1cccc2c(-n3c(CC4CC4)nc4c(-c5cnc(Cl)[nH]5)cc(N5CCOCC5)cc43)ccnc12 [Example 304, 4-[7-(2-chloro-1H-imidazol-5-yl)-2-(cyclopropylmethyl)-3-(8-fluoroquinolin-4-yl)benzimidazol-5-yl]morpholine]
13	CCCc1nc2c(-c3cnc(Cl)[nH]3)cc(N3CCOCC3)cc2n1-c1ccnc2c(F)cccc12 [Example 305, 4-[7-(2-chloro-1H-imidazol-5-yl)-3-(8-fluoroquinolin-4-yl)-2-propylbenzimidazol-5-yl]morpholine]
370	Cc1nc2c(-c3cnc(Cl)[nH]3)cc(N3CCOCC3)cc2n1-c1ccnc2ccccc12 [Example 306, 4-[7-(2-chloro-1H-imidazol-5-yl)-2-methyl-3-quinolin-4-ylbenzimidazol-5-yl]morpholine]
8	Fc1ccc(Cl)c2nccc(-n3c(C4CC4)nc4c(-c5cnc(Cl)[nH]5)cc(N5CCOCC5)cc43)c12 [Example 307, 4-[3-(8-chloro-5-fluoroquinolin-4-yl)-7-(2-chloro-1H-imidazol-5-yl)-2-cyclopropylbenzimidazol-5-yl]morpholine]
6	Fc1ccc(F)c2c(-n3cnc4c(-c5cnc(Cl)[nH]5)cc(N5CCOCC5)cc43)ccnc12 [Example 308, 4-[7-(2-chloro-1H-imidazol-5-yl)-3-(5,8-difluoroquinolin-4-yl)benzimidazol-5-yl]morpholine]
50	Cc1nc2c(-c3cnc(Cl)[nH]3)cc(N3CCOCC3)cc2n1-c1ccnc2c(F)ccc(Cl)c12 [Example 309, 4-[3-(5-chloro-8-fluoroquinolin-4-yl)-7-(2-chloro-1H-imidazol-5-yl)-2-methylbenzimidazol-5-yl]morpholine]
36	CCc1nc2c(-c3cnc(Cl)[nH]3)cc(N3CCOCC3)cc2n1-c1ccnc2c(F)ccc(Cl)c12 [Example 310, 4-[3-(5-chloro-8-fluoroquinolin-4-yl)-7-(2-chloro-1H-imidazol-5-yl)-2-ethylbenzimidazol-5-yl]morpholine]
